Reference: ChEMBL document CHEMBL1201862, “PubChem BioAssay data set” (2004)
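How tested: cells in 96-well plates exposed to compound for 48 hours at five concentrations. GI50 is the concentration that inhibits growth by half.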 Calls of active or inactive are those of the source. Rule as the data show it: active = GI50 up to about 1.1 µM and inactive = higher.

Key:
Experiment in all cases: growth of human tumour cells (NCI), 48 h
[1] = system: 786-0
[2] = system: CAKI-1
[3] = system: HOP-62
[4] = system: HT-29
[5] = system: M14
[6] = system: M19-MEL
[7] = system: MOLT-4
[8] = system: NCI-H460
[9] = system: SF-295
[10] = system: SK-MEL-2
[11] = system: SNB-75
[12] = system: SR
[13] = system: SW-620
[14] = system: UO-31
[15] = system: HCC 2998
[16] = system: NCI-H226

Measured: GI50

COC(OC)c1cccnc1C
inactive: [1] > 100 µM | [2] > 100 µM | [3] > 100 µM | [4] > 100 µM | [5] > 100 µM | [6] > 100 µM | [7] > 100 µM | [8] > 100 µM | [9] > 100 µM | [10] > 100 µM | [11] > 100 µM | [12] > 100 µM | [13] > 100 µM | [14] > 100 µM

CCN(CC)C(=O)Cc1c(C(=O)N(CC)CC)c(=O)nc2sccn12
inactive: [1] > 100 µM | [15] > 100 µM | [3] > 100 µM | [4] > 100 µM | [5] > 100 µM | [6] > 100 µM | [7] > 100 µM | [16] > 100 µM | [8] > 100 µM | [9] > 100 µM | [10] > 100 µM | [11] > 100 µM | [12] > 100 µM | [13] > 100 µM | [14] > 100 µM

CSc1ccc2c(cc1=O)[C@@H](NC(=O)c1ccc(Cl)cc1)CCc1cc(O)c(O)c(O)c1-2
inactive: [1] > 100 µM | [2] 45.9 µM | [15] > 100 µM | [3] 57.4 µM | [4] > 100 µM | [5] 34.7 µM | [6] 31.1 µM | [7] 26.3 µM | [16] > 100 µM | [8] 43.5 µM | [9] 38.5 µM | [10] > 100 µM | [11] 27.7 µM | [13] 19.5 µM | [14] > 100 µM

COC(=O)c1nc(N)nc(O)c1CCCCCc1c(O)nc(N)nc1C(=O)OC
inactive: [1] > 50 µM | [2] > 50 µM | [15] > 50 µM | [3] > 50 µM | [4] > 50 µM | [5] > 50 µM | [6] > 50 µM | [8] > 50 µM | [9] > 50 µM | [10] > 50 µM | [11] > 50 µM | [13] > 50 µM | [14] > 50 µM

Clc1ccc(Nc2nc3ccccc3nc2-c2cccs2)cc1Cl
inactive: [1] 35.7 µM | [15] 32.1 µM | [3] > 100 µM | [4] 25.3 µM | [6] 57.8 µM | [7] 14.8 µM | [16] 34.1 µM | [8] 22.7 µM | [9] 40.4 µM | [10] > 100 µM | [11] 84.9 µM | [12] 22.8 µM | [13] 85.7 µM | [14] 34.8 µM

C=CCC1C(=O)CC2(C)C(CC=C)C(=O)CC12C (stereo not drawn)
inactive: [1] > 100 µM | [2] > 100 µM | [15] > 100 µM | [3] > 100 µM | [4] > 100 µM | [5] > 100 µM | [6] > 100 µM | [7] > 100 µM | [16] > 100 µM | [8] > 100 µM | [9] > 100 µM | [10] > 100 µM | [11] > 100 µM | [12] > 100 µM | [13] > 100 µM | [14] > 100 µM

NC1=NN(c2ccccc2)C(=O)C1C(=O)C(=O)Nc1ccc(Cl)c(Cl)c1 (stereo not drawn)
inactive: [1] > 100 µM | [2] 55.3 µM | [15] > 100 µM | [3] > 100 µM | [4] > 100 µM | [5] > 100 µM | [6] > 100 µM | [7] > 100 µM | [16] > 100 µM | [8] > 100 µM | [9] > 100 µM | [10] > 100 µM | [11] 37.2 µM | [12] > 100 µM | [13] > 100 µM | [14] > 100 µM

CC1(c2ccccc2)CC(c2cccc([N+](=O)[O-])c2)=NO1 (stereo not drawn)
inactive: [1] > 100 µM | [15] > 100 µM | [3] > 100 µM | [4] 73.1 µM | [5] > 100 µM | [6] > 100 µM | [7] 56.2 µM | [16] > 100 µM | [8] > 100 µM | [9] 47.8 µM | [10] > 100 µM | [11] > 100 µM | [12] > 100 µM | [13] > 100 µM | [14] 82.8 µM

O=C(Nc1ccccc1-c1nc2ccccc2[nH]c1=O)c1ccccc1
inactive: [1] 17.3 µM | [2] 29.9 µM | [15] 15.4 µM | [3] 19.5 µM | [4] 37.3 µM | [5] 59.6 µM | [6] 32.5 µM | [7] > 100 µM | [16] 25.2 µM | [8] 21.5 µM | [9] 20.9 µM | [10] 23.5 µM | [11] 13.8 µM | [13] 27.9 µM | [14] 19.6 µM
